Measured values taken from ChEMBL document CHEMBL3044542 (J Agric Food Chem, 2011).

Legend:
Type in all cases: functional
Laodelphax striatellus [1] = test: Insecticidal activity against Laodelphax striatella (small brown planthopper) assessed as lethality at 10 to 100 ppm
Nephotettix cincticeps [2] = test: Insecticidal activity against Nephotettix cincticeps (green rice leafhopper) assessed as lethality at 1 to 10 ppm
Nephotettix cincticeps [3] = test: Insecticidal activity against Nephotettix cincticeps (green rice leafhopper) assessed as lethality at >1000 ppm
Nephotettix cincticeps [4] = test: Insecticidal activity against Nephotettix cincticeps (green rice leafhopper) assessed as lethality at 100 to 1000 ppm
Laodelphax striatellus [5] = test: Insecticidal activity against Laodelphax striatella (small brown planthopper) assessed as lethality at 0.1 to 1 ppm
Nephotettix cincticeps [6] = test: Insecticidal activity against Nephotettix cincticeps (green rice leafhopper) assessed as lethality at 0.1 to 1 ppm
Nephotettix cincticeps [7] = test: Insecticidal activity against Nephotettix cincticeps (green rice leafhopper) assessed as lethality at 10 to 100 ppm
Laodelphax striatellus [8] = test: Insecticidal activity against Laodelphax striatella (small brown planthopper) assessed as lethality at 100 to 1000 ppm
Laodelphax striatellus [9] = test: Insecticidal activity against Laodelphax striatella (small brown planthopper) assessed as lethality at 1 to 10 ppm
Laodelphax striatellus [10] = test: Insecticidal activity against Laodelphax striatella (small brown planthopper) assessed as lethality at >1000 ppm

## O=[N+]([O-])/N=C1\NCCN1CC1CCOC1 (stereo not given)
Laodelphax striatellus [1]
  Activity: 70%
Nephotettix cincticeps [2]
  Activity: 70%

## CN/C(=C\[N+](=O)[O-])CCC1CCOC1 (stereo not given)
Nephotettix cincticeps [3]
  Activity: 70%

## CC/C(=C\[N+](=O)[O-])N(C)CC1CCOC1 (stereo not given)
Nephotettix cincticeps [3]
  Activity: 70%

## N/C(=N\[N+](=O)[O-])NCC1CCOC1 (stereo not given)
Nephotettix cincticeps [4]
  Activity: 70%

## CN/C(=C\[N+](=O)[O-])NCC1CCOC1 (stereo not given)
Laodelphax striatellus [5]
  Activity: 70%
Nephotettix cincticeps [6]
  Activity: 70%

## CCN/C(=N\[N+](=O)[O-])NCC1CCOC1 (stereo not given)
Nephotettix cincticeps [7]
  Activity: 70%
Laodelphax striatellus [8]
  Activity: 70%

## CN(C)/C(=N\[N+](=O)[O-])N(C)CC1CCOC1 (stereo not given)
Nephotettix cincticeps [7]
  Activity: 70%
Laodelphax striatellus [1]
  Activity: 70%

## CN/C(=N\[N+](=O)[O-])N(C)CC1CCOC1 (stereo not given)
Nephotettix cincticeps [2]
  Activity: 70%
Laodelphax striatellus [9]
  Activity: 70%

## CN(C(=O)c1ccccc1)/C(=N\[N+](=O)[O-])N(CC1CCOC1)C(=O)c1ccccc1 (stereo not given)
Nephotettix cincticeps [6]
  Activity: 70%
Laodelphax striatellus [9]
  Activity: 70%

## CC(=O)N(C)/C(=N\[N+](=O)[O-])N(CC1CCOC1)C(C)=O (stereo not given)
Laodelphax striatellus [5]
  Activity: 70%
Nephotettix cincticeps [6]
  Activity: 70%

## CN/C(=N\[N+](=O)[O-])NCC1(C)CCOC1 (stereo not given)
Nephotettix cincticeps [3]
  Activity: 70%
Laodelphax striatellus [10]
  Activity: 70%

## CN/C(=N\[N+](=O)[O-])NCC1CCCOC1 (stereo not given)
Nephotettix cincticeps [7]
  Activity: 70%
Laodelphax striatellus [8]
  Activity: 70%

## CCN(CC1CCOC1)/C(=C/[N+](=O)[O-])NC (stereo not given)
Laodelphax striatellus [1]
  Activity: 70%
Nephotettix cincticeps [2]
  Activity: 70%

## N#C/N=C1\SCCCN1CC1CCOC1 (stereo not given)
Nephotettix cincticeps [7]
  Activity: 70%
Laodelphax striatellus [1]
  Activity: 70%

## CN1COCN(CC2CCOC2)/C1=N/[N+](=O)[O-] (stereo not given)
Nephotettix cincticeps [4]
  Activity: 70%
Laodelphax striatellus [8]
  Activity: 70%

## C/C(=N\C#N)N(C)CC1CCOC1 (stereo not given)
Nephotettix cincticeps [4]
  Activity: 70%
Laodelphax striatellus [8]
  Activity: 70%

## O=[N+]([O-])/N=C1\NCCN1Cc1ccoc1
Nephotettix cincticeps [7]
  Activity: 70%
Laodelphax striatellus [1]
  Activity: 70%

## O=[N+]([O-])/N=C1\NCCN1CCC1CCCCO1 (stereo not given)
Nephotettix cincticeps [4]
  Activity: 70%
Laodelphax striatellus [8]
  Activity: 70%

## O=[N+]([O-])/N=C1\NCCN1CCC1CCCO1 (stereo not given)
Nephotettix cincticeps [4]
  Activity: 70%
Laodelphax striatellus [8]
  Activity: 70%

## O=C(OCCCN1CCN/C1=C\[N+](=O)[O-])c1ccccc1
Nephotettix cincticeps [4]
  Activity: 70%
Laodelphax striatellus [8]
  Activity: 70%

## COCCCN1CCN/C1=C\[N+](=O)[O-]
Nephotettix cincticeps [7]
  Activity: 70%
Laodelphax striatellus [8]
  Activity: 70%

## CC(=O)OCCCN1CCN/C1=C\[N+](=O)[O-]
Nephotettix cincticeps [4]
  Activity: 70%
Laodelphax striatellus [8]
  Activity: 70%

## O=C(OCCN1CCN/C1=C\[N+](=O)[O-])c1ccccc1
Nephotettix cincticeps [3]
  Activity: 70%
Laodelphax striatellus [8]
  Activity: 70%

## O=[N+]([O-])/C=C1\NCCN1CCCO
Nephotettix cincticeps [4]
  Activity: 70%
Laodelphax striatellus [8]
  Activity: 70%

## O=[N+]([O-])/C=C1\NCCN1CCO
Nephotettix cincticeps [3]
  Activity: 70%
Laodelphax striatellus [8]
  Activity: 70%

## COCCN1CCN/C1=C\[N+](=O)[O-]
Nephotettix cincticeps [7]
  Activity: 70%
Laodelphax striatellus [8]
  Activity: 70%

## CC(=O)OCCN1CCN/C1=C\[N+](=O)[O-]
Nephotettix cincticeps [3]
  Activity: 70%
Laodelphax striatellus [8]
  Activity: 70%

## CN/C(=N\[N+](=O)[O-])NCC1CCOC1C (mixture of isomers)
Nephotettix cincticeps [3]
  Activity: 70%
Laodelphax striatellus [10]
  Activity: 70%

## CN/C(=N\[N+](=O)[O-])NCC1COC(C)C1 (mixture of isomers)
Laodelphax striatellus [1]
  Activity: 70%
Nephotettix cincticeps [2]
  Activity: 70%

## CCC1COCC1CN/C(=N/[N+](=O)[O-])NC (mixture of isomers)
Nephotettix cincticeps [3]
  Activity: 70%
Laodelphax striatellus [10]
  Activity: 70%

## CN/C(=N\[N+](=O)[O-])NCC1CC2CCC1O2 (mixture of isomers)
Nephotettix cincticeps [3]
  Activity: 70%
Laodelphax striatellus [10]
  Activity: 70%

## CN/C(=N\[N+](=O)[O-])NCC1COCC1C (mixture of isomers)
Laodelphax striatellus [1]
  Activity: 70%
Nephotettix cincticeps [2]
  Activity: 70%

## CN/C(=N/CC1CCOC1)N[N+](=O)[O-] (stereo not given) [DINOTEFURAN]
Laodelphax striatellus [5]
  Activity: 70%
Nephotettix cincticeps [6]
  Activity: 70%

## O=[N+]([O-])/N=C1\NCCN1Cc1ccc(Cl)nc1 [IMIDACLOPRID]
Laodelphax striatellus [5]
  Activity: 70%
Nephotettix cincticeps [6]
  Activity: 70%
